BindingDB's records for doi:10.1016/s0960-894x(98)00596-4 (University of Connecticut, 1999)

Tests used:
[1] = Inhibitory activity against alpha-L-fucosidase in bovine kidney; Competitive Inhibition type
[2] = Inhibitory activity against alpha-L-fucosidase in bovine kidney at PH of 6.5; Mixed Inhibition type; settings: pH 6.5
[3] = Inhibitory activity against alpha-L-fucosidase in bovine epididymis at PH of 6.5; Competitive Inhibition type; settings: pH 6.5

Row | Ki [1] [µM] | Ki [2] [µM] | Ki [3] [µM] | Compound
1 | 42 | – | – | O[C@H]1[C@H](O)[C@H](O)O[C@@H](CS)[C@H]1O [(2R,3S,4R,5S,6R)-6-Mercaptomethyl-tetrahydro-pyran-2,3,4,5-tetraol]
2 | – | 4.6 | 5.6 | CC(=O)NCSC1OC(C)C(O)C(O)C1O (stereo not drawn) [N-(3,4,5-Trihydroxy-6-methyl-tetrahydro-pyran-2-ylsulfanylmethyl)-acetamide]
